In test [1] the target is SRSF protein kinase 2 (Homo sapiens) (UniProt P78362). Kind of test: Inhibition of SRPK2 (unknown origin) at 10 uM after 120 mins P33 radiolabeled kinase activity assay.
Test [2] deals with Mitogen-activated protein kinase kinase kinase 9 (Homo sapiens) (UniProt P80192). Kind of test: Inhibition of MLK1 (unknown origin) at 10 uM after 120 mins P33 radiolabeled kinase activity assay.
In test [3] the target is Ribosomal protein S6 kinase beta-2 (Homo sapiens) (UniProt Q9UBS0). In words: Inhibition of RPS6KB2 (unknown origin) at 10 uM after 120 mins P33 radiolabeled kinase activity assay.
The target of test [4] is T1, cAMP-dependent protein kinase catalytic subunit PRKX (Homo sapiens) (UniProt P51817).
T1 sequence (whole entry): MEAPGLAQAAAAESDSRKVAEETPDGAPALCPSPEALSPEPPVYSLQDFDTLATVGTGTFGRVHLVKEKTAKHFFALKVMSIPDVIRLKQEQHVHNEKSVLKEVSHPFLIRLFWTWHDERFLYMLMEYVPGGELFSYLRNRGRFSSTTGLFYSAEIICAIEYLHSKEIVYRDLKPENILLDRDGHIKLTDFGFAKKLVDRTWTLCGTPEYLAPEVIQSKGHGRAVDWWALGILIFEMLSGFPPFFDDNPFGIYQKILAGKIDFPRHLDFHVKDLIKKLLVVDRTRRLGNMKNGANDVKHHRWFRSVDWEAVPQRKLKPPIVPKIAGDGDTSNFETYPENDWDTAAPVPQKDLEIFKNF
In words: Inhibition of PRKX (unknown origin) at 10 uM after 120 mins P33 radiolabeled kinase activity assay.

For test [5], the target named is Mitogen-activated protein kinase kinase kinase kinase 2 (Homo sapiens) (UniProt Q12851). Kind of test: Inhibition of GCK (unknown origin) at 10 uM after 120 mins P33 radiolabeled kinase activity assay.
For test [6], the target named is Calcium/calmodulin-dependent protein kinase type 1D (Homo sapiens) (UniProt Q8IU85). In words: Inhibition of CAMK1delta (unknown origin) at 10 uM after 120 mins P33 radiolabeled kinase activity assay.
Test [7] deals with Protein kinase C gamma type (Homo sapiens) (UniProt P05129). Kind of test: Inhibition of PKCgamma (unknown origin) at 10 uM after 120 mins P33 radiolabeled kinase activity assay.
In test [8] the target is T2, Serine/threonine-protein kinase 17A (Homo sapiens) (UniProt Q9UEE5).
T2 sequence (whole entry): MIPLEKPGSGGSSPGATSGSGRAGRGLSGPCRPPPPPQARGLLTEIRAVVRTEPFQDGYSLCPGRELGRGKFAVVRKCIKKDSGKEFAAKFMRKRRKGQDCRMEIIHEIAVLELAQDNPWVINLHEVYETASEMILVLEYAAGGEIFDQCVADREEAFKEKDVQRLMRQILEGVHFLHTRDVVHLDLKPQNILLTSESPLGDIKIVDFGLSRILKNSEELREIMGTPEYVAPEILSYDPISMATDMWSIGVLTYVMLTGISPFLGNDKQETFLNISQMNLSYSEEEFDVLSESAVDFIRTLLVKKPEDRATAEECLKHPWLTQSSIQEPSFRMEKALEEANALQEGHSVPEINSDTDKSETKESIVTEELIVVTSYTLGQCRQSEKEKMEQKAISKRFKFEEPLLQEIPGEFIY
In words: Inhibition of DRAK1 (unknown origin) at 10 uM after 120 mins P33 radiolabeled kinase activity assay.

Test [9] addresses Ribosomal protein S6 kinase alpha-6 (Homo sapiens) (UniProt Q9UK32). Kind of test: Inhibition of RSK4 (unknown origin) at 10 uM after 120 mins P33 radiolabeled kinase activity assay.
Test [10] has as its target Dual specificity tyrosine-phosphorylation-regulated kinase 1B (Homo sapiens) (UniProt Q9Y463). Kind of test: Inhibition of DYRK1B (unknown origin) at 10 uM after 120 mins P33 radiolabeled kinase activity assay.
Test [11] deals with CDK3/Cyclin E (Homo sapiens) (UniProt P24864+Q00526). In words: Inhibition of CDK3/cyclin E (unknown origin) at 10 uM after 120 mins P33 radiolabeled kinase activity assay. Format: protein-complex assay.
The target in test [12] is Tyrosine-protein kinase ABL2 (Homo sapiens) (UniProt P42684). In words: Inhibition of ABL2 (unknown origin) at 10 uM after 120 mins P33 radiolabeled kinase activity assay.
In test [13] the target is MAP kinase-activated protein kinase 2 (Homo sapiens) (UniProt P49137). Kind of test: Inhibition of MAPKAPK2 (unknown origin) at 10 uM after 120 mins P33 radiolabeled kinase activity assay.
Test [14] deals with T3, Serine/threonine-protein kinase ULK2 (Homo sapiens) (UniProt Q8IYT8).
T3 sequence (whole entry): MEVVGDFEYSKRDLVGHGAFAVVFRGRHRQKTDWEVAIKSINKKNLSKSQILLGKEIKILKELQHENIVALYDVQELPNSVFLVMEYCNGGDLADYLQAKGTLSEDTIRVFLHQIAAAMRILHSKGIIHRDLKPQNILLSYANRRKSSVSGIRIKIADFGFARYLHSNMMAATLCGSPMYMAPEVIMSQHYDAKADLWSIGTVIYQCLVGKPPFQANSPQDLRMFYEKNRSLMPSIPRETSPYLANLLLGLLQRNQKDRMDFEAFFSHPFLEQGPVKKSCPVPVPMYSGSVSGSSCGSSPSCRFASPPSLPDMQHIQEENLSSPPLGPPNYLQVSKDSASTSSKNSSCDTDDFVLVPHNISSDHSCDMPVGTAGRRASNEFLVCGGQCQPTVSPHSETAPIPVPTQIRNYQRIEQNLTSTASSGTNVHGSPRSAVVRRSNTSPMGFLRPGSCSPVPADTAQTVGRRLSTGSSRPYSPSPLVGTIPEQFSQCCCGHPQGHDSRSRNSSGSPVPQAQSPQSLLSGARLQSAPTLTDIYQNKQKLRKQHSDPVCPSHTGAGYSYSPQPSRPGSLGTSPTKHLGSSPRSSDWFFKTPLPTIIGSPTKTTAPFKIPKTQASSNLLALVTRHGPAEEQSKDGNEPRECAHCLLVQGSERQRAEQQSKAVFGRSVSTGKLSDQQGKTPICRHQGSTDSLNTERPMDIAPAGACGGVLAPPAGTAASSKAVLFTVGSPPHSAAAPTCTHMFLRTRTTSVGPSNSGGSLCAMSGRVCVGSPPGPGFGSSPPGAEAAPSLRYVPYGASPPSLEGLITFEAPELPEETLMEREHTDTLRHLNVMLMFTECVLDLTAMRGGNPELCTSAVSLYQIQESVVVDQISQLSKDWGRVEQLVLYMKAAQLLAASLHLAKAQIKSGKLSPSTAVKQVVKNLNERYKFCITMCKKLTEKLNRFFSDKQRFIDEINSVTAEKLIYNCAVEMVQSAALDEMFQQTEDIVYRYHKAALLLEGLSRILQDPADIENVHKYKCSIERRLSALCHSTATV
In words: Inhibition of ULK2 (unknown origin) at 10 uM after 120 mins P33 radiolabeled kinase activity assay.

The target of test [15] is Insulin receptor (Homo sapiens) (UniProt P06213). Kind of test: Inhibition of IR (unknown origin) at 10 uM after 120 mins P33 radiolabeled kinase activity assay.

Chain of CDK3/Cyclin E (Homo sapiens) (P24864 whole entry, looked up): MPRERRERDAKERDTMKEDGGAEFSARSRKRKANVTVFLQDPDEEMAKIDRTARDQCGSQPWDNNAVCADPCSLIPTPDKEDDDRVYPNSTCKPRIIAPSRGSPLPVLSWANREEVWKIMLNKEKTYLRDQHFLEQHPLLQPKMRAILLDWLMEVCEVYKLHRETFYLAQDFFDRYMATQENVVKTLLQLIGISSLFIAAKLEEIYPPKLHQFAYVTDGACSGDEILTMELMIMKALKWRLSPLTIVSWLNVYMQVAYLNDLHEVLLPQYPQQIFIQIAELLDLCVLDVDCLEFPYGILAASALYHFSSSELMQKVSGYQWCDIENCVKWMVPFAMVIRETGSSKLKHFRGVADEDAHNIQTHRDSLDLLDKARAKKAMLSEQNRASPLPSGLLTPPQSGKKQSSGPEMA
Chain of CDK3/Cyclin E (Homo sapiens) (Q00526 whole entry, looked up): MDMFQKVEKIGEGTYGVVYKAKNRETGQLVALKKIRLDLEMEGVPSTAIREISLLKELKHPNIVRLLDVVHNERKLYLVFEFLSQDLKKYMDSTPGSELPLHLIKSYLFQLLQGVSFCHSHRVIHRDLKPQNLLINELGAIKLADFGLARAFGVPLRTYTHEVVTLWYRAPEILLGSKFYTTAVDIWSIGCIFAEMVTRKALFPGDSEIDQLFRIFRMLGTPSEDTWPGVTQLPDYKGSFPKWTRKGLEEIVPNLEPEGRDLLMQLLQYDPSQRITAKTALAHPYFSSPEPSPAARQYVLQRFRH
Chain of Dual specificity tyrosine-phosphorylation-regulated kinase 1B (Homo sapiens) (Q9Y463 whole entry, looked up): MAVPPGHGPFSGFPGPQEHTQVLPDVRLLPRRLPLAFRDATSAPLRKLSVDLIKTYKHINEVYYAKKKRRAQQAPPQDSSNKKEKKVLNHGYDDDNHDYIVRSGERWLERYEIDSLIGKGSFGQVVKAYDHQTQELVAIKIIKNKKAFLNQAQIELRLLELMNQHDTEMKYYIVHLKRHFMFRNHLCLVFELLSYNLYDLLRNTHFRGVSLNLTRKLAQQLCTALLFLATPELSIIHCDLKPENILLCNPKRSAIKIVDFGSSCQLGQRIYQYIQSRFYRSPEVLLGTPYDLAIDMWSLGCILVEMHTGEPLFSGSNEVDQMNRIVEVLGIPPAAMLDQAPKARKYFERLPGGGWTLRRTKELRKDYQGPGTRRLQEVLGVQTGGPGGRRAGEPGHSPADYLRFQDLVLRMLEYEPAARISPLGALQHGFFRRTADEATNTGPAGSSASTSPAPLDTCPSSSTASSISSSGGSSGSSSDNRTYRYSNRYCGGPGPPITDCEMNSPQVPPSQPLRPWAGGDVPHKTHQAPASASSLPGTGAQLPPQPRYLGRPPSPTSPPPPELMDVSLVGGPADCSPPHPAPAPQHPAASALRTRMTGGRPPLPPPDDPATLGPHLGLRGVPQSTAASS
Chain of Calcium/calmodulin-dependent protein kinase type 1D (Homo sapiens) (Q8IU85 whole entry, looked up): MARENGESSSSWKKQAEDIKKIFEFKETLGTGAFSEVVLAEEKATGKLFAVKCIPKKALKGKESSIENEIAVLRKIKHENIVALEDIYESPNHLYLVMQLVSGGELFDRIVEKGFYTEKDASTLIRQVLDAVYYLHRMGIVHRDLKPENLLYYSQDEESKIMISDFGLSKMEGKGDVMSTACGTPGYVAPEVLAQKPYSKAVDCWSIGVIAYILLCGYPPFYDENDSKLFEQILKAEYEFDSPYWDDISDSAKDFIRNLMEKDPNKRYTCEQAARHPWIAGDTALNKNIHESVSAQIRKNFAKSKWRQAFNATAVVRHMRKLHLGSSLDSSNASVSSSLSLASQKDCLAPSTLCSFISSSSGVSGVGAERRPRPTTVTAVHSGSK
Chain of Mitogen-activated protein kinase kinase kinase kinase 2 (Homo sapiens) (Q12851 whole entry, looked up): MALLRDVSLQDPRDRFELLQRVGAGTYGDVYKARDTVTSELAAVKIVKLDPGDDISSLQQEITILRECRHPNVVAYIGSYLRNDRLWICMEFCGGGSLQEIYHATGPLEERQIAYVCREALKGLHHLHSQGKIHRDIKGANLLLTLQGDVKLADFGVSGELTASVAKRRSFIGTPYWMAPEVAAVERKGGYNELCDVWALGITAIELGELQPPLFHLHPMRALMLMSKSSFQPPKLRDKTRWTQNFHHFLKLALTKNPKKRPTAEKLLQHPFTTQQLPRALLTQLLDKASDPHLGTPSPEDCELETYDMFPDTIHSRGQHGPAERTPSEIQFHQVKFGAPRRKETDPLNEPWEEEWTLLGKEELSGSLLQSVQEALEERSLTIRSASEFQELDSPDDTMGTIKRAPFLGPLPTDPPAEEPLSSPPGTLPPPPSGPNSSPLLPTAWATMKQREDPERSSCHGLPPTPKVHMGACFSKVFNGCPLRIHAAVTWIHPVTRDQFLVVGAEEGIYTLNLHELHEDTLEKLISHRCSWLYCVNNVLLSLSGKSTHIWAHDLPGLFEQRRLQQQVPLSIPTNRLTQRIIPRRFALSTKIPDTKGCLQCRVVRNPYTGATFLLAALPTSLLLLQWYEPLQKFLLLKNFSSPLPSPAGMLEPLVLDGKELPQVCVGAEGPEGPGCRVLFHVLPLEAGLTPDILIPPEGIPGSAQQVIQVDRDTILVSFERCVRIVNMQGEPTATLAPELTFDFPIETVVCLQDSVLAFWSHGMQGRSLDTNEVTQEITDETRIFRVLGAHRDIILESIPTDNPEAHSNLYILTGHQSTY
Chain of Tyrosine-protein kinase ABL2 (Homo sapiens) (P42684 whole entry): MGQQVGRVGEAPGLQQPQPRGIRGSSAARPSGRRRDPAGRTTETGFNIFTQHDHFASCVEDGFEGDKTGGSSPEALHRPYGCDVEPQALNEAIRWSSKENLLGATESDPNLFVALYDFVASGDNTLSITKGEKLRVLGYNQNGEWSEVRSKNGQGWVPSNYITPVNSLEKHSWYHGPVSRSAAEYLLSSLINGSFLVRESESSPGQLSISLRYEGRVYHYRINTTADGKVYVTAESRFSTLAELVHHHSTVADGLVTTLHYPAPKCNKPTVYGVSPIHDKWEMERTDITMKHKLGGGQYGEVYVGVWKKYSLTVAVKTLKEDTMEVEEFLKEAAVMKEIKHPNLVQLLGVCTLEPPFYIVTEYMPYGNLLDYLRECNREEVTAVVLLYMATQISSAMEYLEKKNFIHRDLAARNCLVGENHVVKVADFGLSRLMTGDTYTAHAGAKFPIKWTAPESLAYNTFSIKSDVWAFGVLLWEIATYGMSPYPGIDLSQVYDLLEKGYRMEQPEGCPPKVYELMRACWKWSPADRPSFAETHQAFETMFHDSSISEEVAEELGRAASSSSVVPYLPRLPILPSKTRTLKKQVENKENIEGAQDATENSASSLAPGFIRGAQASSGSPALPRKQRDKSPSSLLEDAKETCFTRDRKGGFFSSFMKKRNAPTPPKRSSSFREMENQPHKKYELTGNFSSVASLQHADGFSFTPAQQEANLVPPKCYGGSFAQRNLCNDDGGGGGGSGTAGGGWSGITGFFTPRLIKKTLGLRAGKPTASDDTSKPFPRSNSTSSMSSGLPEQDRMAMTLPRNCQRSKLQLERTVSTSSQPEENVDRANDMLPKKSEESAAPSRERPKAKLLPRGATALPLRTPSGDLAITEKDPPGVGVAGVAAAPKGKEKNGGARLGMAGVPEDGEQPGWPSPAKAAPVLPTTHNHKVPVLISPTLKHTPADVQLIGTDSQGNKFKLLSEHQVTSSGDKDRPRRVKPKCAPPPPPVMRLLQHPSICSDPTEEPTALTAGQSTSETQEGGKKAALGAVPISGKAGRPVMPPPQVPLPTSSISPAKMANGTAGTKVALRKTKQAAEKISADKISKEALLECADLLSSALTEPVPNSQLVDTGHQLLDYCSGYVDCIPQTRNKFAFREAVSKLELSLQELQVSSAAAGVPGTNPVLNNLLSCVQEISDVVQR
Chain of MAP kinase-activated protein kinase 2 (Homo sapiens) (P49137 whole entry, looked up): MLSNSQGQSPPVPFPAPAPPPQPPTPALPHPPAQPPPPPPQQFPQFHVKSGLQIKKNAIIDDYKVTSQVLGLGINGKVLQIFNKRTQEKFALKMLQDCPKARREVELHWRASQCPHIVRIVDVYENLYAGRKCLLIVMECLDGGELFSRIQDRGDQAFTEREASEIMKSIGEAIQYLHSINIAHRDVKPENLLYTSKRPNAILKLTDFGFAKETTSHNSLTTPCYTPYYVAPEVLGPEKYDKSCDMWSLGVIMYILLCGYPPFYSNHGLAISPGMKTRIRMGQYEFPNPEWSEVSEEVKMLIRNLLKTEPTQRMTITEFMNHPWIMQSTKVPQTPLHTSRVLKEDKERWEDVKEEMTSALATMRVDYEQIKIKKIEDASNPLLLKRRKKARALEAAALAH

For orientation: inhibition means the relative decrease from the control value, in per cent. As to `COCCNC(=O)c1ccc2c(c1)nc(-c1cnc(-c3ccc(Cl)cc3)[nH]1)n2CCOC`, the inhibition is 7.04% in test [1]; 11% in test [2]; 6.27% in [3]; 12.7% in test [4]; -3.21% in test [5]; 3.59% in test [6]. Also, the inhibition in test [7] is 4.86%; in test [8] it was 5.43%; in [9] it was 1.08%; in test [10], 11.4%; in test [11], 0.29%; in test [12], 59.3%. For the same molecule, the inhibition in test [13] was 11.5%; in test [14] it was -2.46%; in test [15], 2.89%.

For the molecule `CC(C)(C)c1cc(NC(=O)Nc2ccc(Oc3ccncc3)cc2)no1`, the inhibition in test [1] was found to be 18%; in test [2], 29.7%; in test [3], 52.2%; in test [4], 54.2%; in test [5], 57.4%; in [6] it was 8.06%. Moreover, the inhibition in test [7] came to 2.25%; in test [8], 8.49%; in test [9] it was 4.26%; in test [10], 14.5%; in test [11], 49.5%; in test [12], 90.1%. In addition, the results for the inhibition in test [13], in [14] and in test [15] were 11%, -6.09% and 21.6%, respectively.

Regarding `CS(=O)(=O)c1cccc(Nc2nccc(-c3sc(N4CCOCC4)nc3-c3cccc(NS(=O)(=O)c4c(F)cccc4F)c3)n2)c1`, the inhibition in test [1] is 17.7%; in test [2], 94.4%; in test [3], 11.1%; in test [4], 18.2%; in [5], -0.78%; in [6], 76.3%. Also, the inhibition in test [7] stood at 10.9%; in test [8], 1.47%; in test [9], 66.9%; in test [10], 27.5%; in test [11] it was 60%; in test [12] it was 99.8%. Further, the results for the inhibition in test [13], in test [14] and in test [15] were 10.7%, 17% and 0.58%, respectively.
